Drawing on article PMC6269792, “Arylsulfonylamino-Benzanilides as Inhibitors of the Apical Sodium-Dependent Bile Salt Transporter (SLC10A2)” (Molecules, 2013), this text covers inhibition, IC50 and melting point for 26 molecules.

The target of one data set is T1, Human ASBT (Homo sapiens, UniProt Q12908).
T1 construct: expressed in transfected cells; host or cells: HEK293T
T1 sequence (Q12908 1-348): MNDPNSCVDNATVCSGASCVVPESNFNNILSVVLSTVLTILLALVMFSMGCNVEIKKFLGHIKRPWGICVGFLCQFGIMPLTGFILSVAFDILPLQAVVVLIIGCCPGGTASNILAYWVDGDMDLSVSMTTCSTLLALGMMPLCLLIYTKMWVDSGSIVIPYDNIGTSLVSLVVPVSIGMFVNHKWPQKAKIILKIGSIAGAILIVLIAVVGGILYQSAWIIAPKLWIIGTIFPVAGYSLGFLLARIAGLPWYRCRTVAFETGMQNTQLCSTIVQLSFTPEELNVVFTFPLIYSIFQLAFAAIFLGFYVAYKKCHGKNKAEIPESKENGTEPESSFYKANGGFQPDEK
Briefly: ASBT inhibition assay: [3H]-taurocholic acid uptake in HEK293T cells transiently transfected with human ASBT. The class given is cell-based. Conditions: for inhibition at 10 µM: HEK-293T; for IC50: inhibitor concentration that gives 50% taurocholate uptake compared to no inhibitor control. The procedure:
In vitro inhibitory activity of all target compounds against ASBT was evaluated using a radioisotope-based assay. All the newly synthesized derivatives were initially tested at 10 μM concentration (Table 1).
HEK293T was obtained from the American Type Culture Collection (Manassas, VA, USA), and grown in MEM supplemented with 100 U/mL penicillin and […] streptomycin and 10% heat-inactivated fetal bovine serum. Human ASBT expression construct was prepared as previously described. HEK293T cells were seeded in 12 well plates and transiently transfected with 0.5 μg/well pcDNA3.1/ASBT or negative control plasmid pcDNA3.1 using lipofactamine 2000 (Invitrogen, Carlsbad, CA, USA) according to the manufacturer’s instructions. Twenty-four hours after transfection, HEK293T cells were assayed for taurocholic acid uptake as previously described with minor modifications. […] To terminate the transport process, the plates were chilled on ice and the cells were immediately washed with ice-cold buffer three times. Cells were lysed with 0.3 mL lysis buffer (0.5% triton x-100) and shaken vigorously for 20 min. The radioactivity of the cell lysate was counted using a MicroBeta^2 Liquid Scintillation and Luminescence Counter (PerkinElmer Life Sciences). Protein concentration of the lysate was used to normalize uptake activity.
The inhibition rate was calculated using the following formula: Inhibition Rate (%) = [(1 − (A − C)/(B − C)] × 100
A, [^3H] uptake value of test compound in [^3H]-TCA buffer added to pcDNA3.1/ASBT transfected cells; B, [^3H] uptake value of DMSO (without inhibitor) in [^3H]-TCA buffer added to pcDNA3.1/ASBT transfected cells; C, [^3H] uptake value of Blank sample (DMSO) in [^3H]-TCA buffer added to empty vector (pcDNA3.1) transfected cells.

Usually inhibition stands for the change of the read-out against control, counted positive when it falls. Read a high inhibition as a strong effect. For orientation: IC50 means the concentration that gives 50% inhibition. A lower IC50 goes with higher potency. By melting point is commonly meant the temperature of the solid-liquid transition. The molecule `O=C(Nc1ccc(F)c(Cl)c1)c1ccccc1NS(=O)(=O)c1cccc([N+](=O)[O-])c1` [Compound 5a2, N-(3-Chloro-4-fluorophenyl)-2-(3-nitrophenylsulfonamido)benzamide] yielded a melting point of 203.4 to 204.1 °C. On Human ASBT, the inhibition at 10 µM is 95.4 ± 3.3% and it took 1320 ± 280 nM to reach half-maximal inhibition (IC50).
For `O=C(Nc1cccc(OC(F)F)c1)c1ccccc1NS(=O)(=O)c1cccc([N+](=O)[O-])c1` [Compound 5a3, N-(3-(Difluoromethoxy)phenyl)-2-(3-nitrophenylsulfonamido)benzamide] the same measures were 127.4 to 128.2 °C, 89 ± 2.6% and 2840 ± 520 nM.
For `O=C(Nc1cccc(OC(F)(F)F)c1)c1ccccc1NS(=O)(=O)c1cccc([N+](=O)[O-])c1` [Compound 5a4, 2-(3-Nitrophenylsulfonamido)-N-(3-(trifluoromethoxy)phenyl)benzamide] the same measures were 141.4 to 142 °C, 83.8 ± 3.4% and 1230 ± 120 nM.
`O=C(Nc1cc(F)cc(F)c1)c1ccccc1NS(=O)(=O)c1cccc([N+](=O)[O-])c1` [Compound 5a5, N-(3,5-Difluorophenyl)-2-(3-nitrophenylsulfonamido)benzamide] yielded a melting point of 181.1 to 181.9 °C. Further, 10 µM produced 21.6 ± 4.1% inhibition against Human ASBT.
Molecule `COc1ccc(NC(=O)c2ccccc2NS(=O)(=O)c2cccc([N+](=O)[O-])c2)cc1O` [Compound 5a6, N-(3-Hydroxy-4-methoxyphenyl)-2-(3-nitrophenylsulfonamido)benzamide] had a melting point of 168.9 to 170.1 °C. On Human ASBT, this molecule registered an inhibition at 10 µM of 32.1 ± 3.3%.
Molecule `O=C(Nc1cc(Cl)cc(Cl)c1)c1ccccc1NS(=O)(=O)c1cccc([N+](=O)[O-])c1` [Compound 5a7, N-(3,5-Dichlorophenyl)-2-(3-nitrophenylsulfonamido)benzamide] registered a melting point of 209.9 to 210.4 °C. This molecule also came in with an inhibition at 10 µM against Human ASBT of 56.3 ± 2.8%.
The molecule `O=C(Nc1cccc(Cl)c1)c1ccccc1NS(=O)(=O)c1cccc([N+](=O)[O-])c1` [Compound 5a9, N-(3-Chlorophenyl)-2-(3-nitrophenylsulfonamido)benzamide] showed a melting point of 167.3 to 168.1 °C. The molecule further returned an inhibition at 10 µM against Human ASBT of 46.9 ± 3.6%.
Turning to `Cc1ccc(NC(=O)c2ccccc2NS(=O)(=O)c2cccc([N+](=O)[O-])c2)cc1C(F)(F)F` [Compound 5a10, N-(4-Methyl-3-(trifluoromethyl)phenyl)-2-(3-nitrophenylsulfonamido)benzamide], the melting point was 166.4 to 167.4 °C. In addition, on Human ASBT, 10 µM produced 90.7 ± 4.2% inhibition and the IC50 was 1490 ± 90 nM.
The molecule `O=C(Nc1ccc(F)c(Cl)c1)c1cccc(NS(=O)(=O)c2cccc([N+](=O)[O-])c2)c1` [Compound 5b1, N-(3-Chloro-4-fluorophenyl)-3-(3-nitrophenylsulfonamido)benzamide] showed a melting point of 161.3 to 162.6 °C. This molecule showed an inhibition at 10 µM at Human ASBT of 66.3 ± 5%.
The corresponding values for `O=C(Nc1cccc(OC(F)F)c1)c1cccc(NS(=O)(=O)c2cccc([N+](=O)[O-])c2)c1` [Compound 5b2, N-(3-(Difluoromethoxy)phenyl)-3-(3-nitrophenylsulfonamido)benzamide] are 159.8 to 160.6 °C and 30.6 ± 4.3%.
For `O=C(Nc1ccc(Cl)c(Cl)c1)c1cccc(NS(=O)(=O)c2cccc([N+](=O)[O-])c2)c1` [Compound 5b3, N-(3,4-dichlorophenyl)-3-(3-nitrophenylsulfonamido)benzamide] the same measures were 192.5 to 193.7 °C and 62.4 ± 2.9%.
For the molecule `O=C(Nc1cccc(OC(F)(F)F)c1)c1ccc(NS(=O)(=O)c2cccc([N+](=O)[O-])c2)cc1` [Compound 5c1, 4-(3-Nitrophenylsulfonamido)-N-(3-(trifluoromethoxy)phenyl)benzamide], the melting point is 177.3 to 178.2 °C. Also, testing at 10 µM against Human ASBT gave an inhibition of 29.6 ± 3.5%.
For `O=C(Nc1ccc(Cl)c(Cl)c1)c1ccc(NS(=O)(=O)c2cccc([N+](=O)[O-])c2)cc1` [Compound 5c2, N-(3,4-Dichlorophenyl)-4-(3-nitrophenylsulfonamido)benzamide] the same measures were 189.2 to 190.5 °C and 34.8 ± 3.7%.
For `O=C(Nc1ccc(Cl)cc1Cl)c1ccccc1NS(=O)(=O)c1ccc([N+](=O)[O-])cc1` [Compound 5d1, N-(2,4-Dichlorophenyl)-2-(4-nitrophenylsulfonamido)benzamide] the same measures were 220.6 to 221.3 °C and 66.9 ± 3.5%.
For `O=C(Nc1ccc(F)c(Cl)c1)c1ccccc1NS(=O)(=O)c1ccc([N+](=O)[O-])cc1` [Compound 5d2, N-(3-Chloro-4-fluorophenyl)-2-(4-nitrophenylsulfonamido)benzamide], the melting point is 226.4 to 227.1 °C. The inhibition at 10 µM against Human ASBT came to 75.5 ± 4.4%.
As for `Cc1ccc(NC(=O)c2ccccc2NS(=O)(=O)c2ccc([N+](=O)[O-])cc2)cc1C(F)(F)F` [Compound 5d3, N-(4-Methyl-3-(trifluoromethyl)phenyl)-2-(4-nitrophenylsulfonamido)benzamide], the melting point lay in the range of 198.8 to 199.6 °C. The same molecule registered an inhibition at 10 µM on Human ASBT of 73.7 ± 3.8%.
In turn, `O=C(Nc1cccc(OC(F)F)c1)c1ccccc1NS(=O)(=O)c1ccc([N+](=O)[O-])cc1` [Compound 5d4, N-(3-(Difluoromethoxy)phenyl)-2-(4-nitrophenylsulfonamido)benzamide] gave a melting point of 203.9 to 205 °C. Further, the inhibition at 10 µM at Human ASBT turned out to be 58.8 ± 4.3%.
Molecule `O=C(Nc1cccc(OC(F)(F)F)c1)c1ccccc1NS(=O)(=O)c1ccc([N+](=O)[O-])cc1` [Compound 5d5, 2-(4-Nitrophenylsulfonamido)-N-(3-(trifluoromethoxy)phenyl)benzamide] registered a melting point of 198.8 to 199.4 °C. The inhibition at 10 µM on Human ASBT was 66.7 ± 3.9%.
For `O=C(Nc1ccc(Cl)c(Cl)c1)c1ccccc1NS(=O)(=O)c1ccc([N+](=O)[O-])cc1` [Compound 5d6, N-(3,4-Dichlorophenyl)-2-(4-nitrophenylsulfonamido)benzamide], the melting point lay in the range of 243.4 to 243.6 °C. The molecule also showed an inhibition at 10 µM against Human ASBT of 73.9 ± 2.2%.
For `O=C(Nc1ccc(Cl)cc1Cl)c1ccccc1NS(=O)(=O)c1cccc(F)c1` [Compound 5e1, N-(2,4-Dichlorophenyl)-2-(3-fluorophenylsulfonamido)benzamide] the same measures were 146.3 to 147.6 °C and 42.6 ± 3.4%.
The molecule `O=C(Nc1ccc(F)c(Cl)c1)c1ccccc1NS(=O)(=O)c1cccc(F)c1` [Compound 5e2, N-(3-Chloro-4-fluorophenyl)-2-(3-fluorophenylsulfonamido)benzamide] returned a melting point of 178.6 to 179.9 °C. This molecule returned an inhibition at 10 µM on Human ASBT of 63.2 ± 3.8%.
Molecule `Cc1ccc(NC(=O)c2ccccc2NS(=O)(=O)c2cccc(F)c2)cc1C(F)(F)F` [Compound 5e3, 2-(3-Fluorophenylsulfonamido)-N-(4-methyl-3-(trifluoromethyl)phenyl)benzamide] came in with a melting point of 168.8 to 169.6 °C. Further, at Human ASBT, the inhibition at 10 µM amounted to 57.6 ± 2.9%.
The corresponding values for `O=C(Nc1cccc(OC(F)(F)F)c1)c1ccccc1NS(=O)(=O)c1cccc(F)c1` [Compound 5e4, 2-(3-Fluorophenylsulfonamido)-N-(3-(trifluoromethoxy)phenyl)benzamide] are 166.8 to 168.7 °C and 45.7 ± 3.6%.
For the molecule `O=C(Nc1ccc(Cl)c(Cl)c1)c1ccccc1NS(=O)(=O)c1cccc(F)c1` [Compound 5e5, N-(3,4-Dichlorophenyl)-2-(3-fluorophenylsulfonamido)benzamide], the melting point was 179.1 to 180.6 °C. The molecule also registered an inhibition at 10 µM against Human ASBT of 40.6 ± 2.8%.
The molecule `COc1cccc(S(=O)(=O)Nc2ccccc2C(=O)Nc2ccc(Cl)cc2Cl)c1` [Compound 5f1, N-(2,4-Dichlorophenyl)-2-(3-methoxyphenylsulfonamido)benzamide] had a melting point of 138.8 to 139.7 °C. On Human ASBT, this molecule displayed an inhibition at 10 µM of 21.2 ± 3%.
On Human ASBT, `O=C(Nc1ccc(Cl)c(Cl)c1)c1ccccc1NS(=O)(=O)c1cccc(OC(F)(F)F)c1` [Compound 5g5, N-(3,4-Dichlorophenyl)-2-(3-(trifluoromethoxy)phenylsulfonamido)benzamide] yielded an inhibition at 10 µM of 80.8 ± 4.3% and an IC50 of 1220 ± 200 nM.
